Assay results published in the METLIN SMRT retention time set (Domingo-Almenara et al. 2019).

Experiment: gradient 5% acetonitrile 3 min, to 50% in 2 min, to 85% in 15 min, held 3 min, 100 µL/min
Settings: column: Zorbax Extend-C18 2.1 x 50 mm; eluents: water / acetonitrile, 0.1% formic acid
How it was run: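 Retention time was recorded from adduct peaks, which were picked computationally and each inspected manually. Pure standards ran in mixtures of ~100 molecules on HPLC coupled to a quadrupole time-of-flight mass spectrometer, in positive and negative ionization mode, through a Zorbax Extend-C18 column (2.1 × 50 mm, 1.8 μm) at 100 μL/min. Eluents were water and acetonitrile, each with 0.1% formic acid.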

Row | Structure (SMILES) | RP-LC retention time [s]
1 | CCOC(=O)C(CC)n1nc2nc(Nc3ccc(C)c(F)c3)cc(C)n2c1=O (stereo not drawn) | 1200
2 | CCOc1cc(=O)n2c(c1C(=O)NCC1CCCO1)CCCCC2 (stereo not drawn) | 610
3 | Cc1cc(C)cc(NC(=O)Nc2nccn(-c3ccc(Br)cc3)c2=O)c1 | 1130
4 | O=C(CSCc1ccccc1)NCC1CCN(C(=O)Oc2ccccc2)CC1 | 853
5 | CS(=O)(=O)N1CCC(C(=O)NC2CCCCC2)Oc2ccc(Cl)cc21 (stereo not drawn) | 922
6 | Cc1cc(C(=O)NCc2ccccc2)nc2cc(-c3cccs3)nn12 | 1080
7 | COc1cc(NC(=O)N2CCC(CN3CC(C)CC(C)C3)CC2)cc(OC)c1OC (stereo not drawn) | 625
8 | Nc1o[nH]c(=O)c1C1CCCCC1 | 680
9 | CCc1cc(=O)n(CC(=O)NC2CCCC2)c(N2CCOCC2)n1 | 647
10 | COCCNC(=O)Nc1cccn2c(C)nnc12 | 556
11 | Cc1cncn(CC(=O)N2CCN(S(C)(=O)=O)CC2)c1=O | 528
12 | O=C(C1=NN(Cc2ccc(F)cc2)c2ccccc2S1(=O)=O)N1CCOCC1 | 761
13 | O=C(Cn1nnc2ccccc2c1=O)N1CCN(c2ncccn2)CC1 | 629
14 | COc1ccc(-c2nc(C3CC(=O)N(c4ccc(OC)c(OC)c4)C3)no2)cc1 (stereo not drawn) | 1180
15 | O=[N+]([O-])c1cccnc1Oc1cc(Cl)c(Cl)cc1Cl | 1220
16 | O=C(c1ccccn1)N1CCN(C(=O)c2nnn3c2COC(c2ccc(Cl)cc2)C3)CC1 (stereo not drawn) | 784
17 | COc1ccc2cc(C(=O)N3CCC(C(C)C(=O)NCCc4c[nH]c5ccccc45)CC3)[nH]c2c1 (stereo not drawn) | 818
18 | O=C(CCc1nc2ccccc2s1)NCC12CCCC=C1N(CC1CC1)C(=O)CC2 (stereo not drawn) | 863
19 | CCc1ccc(C2=C(C)C(N3CCCN(C(=O)C4CC4)CC3)=NS2(=O)=O)cc1 | 843
20 | COc1ccc(Cc2nnc(C3CCN(C(=O)c4ccc(=O)[nH]c4)CC3)s2)cc1 | 612
21 | NC(=O)C1CCN(C(=O)c2cn(-c3cccc(Cl)c3)nn2)CC1 | 646
22 | CCN1CCN(CCNC(=O)c2ccc3nc(-c4ccc(Cl)cc4)cn3c2)CC1 | 578
23 | CCc1ccc(NC(=O)Cn2cnc3nc(N4CCC(C(=O)NC5CC5)CC4)sc3c2=O)cc1 | 708
24 | CCN1C(=O)C(CC(=O)NCCOC)Sc2ncccc21 (stereo not drawn) | 593
25 | Cc1ccc(C)c(N2CCN(c3ccc4cc(S(=O)(=O)N5CCCCC5C)ccc4n3)CC2)c1 (stereo not drawn) | 1340
26 | CCn1cc(S(=O)(=O)N2CC(n3cc(C(=O)N4CCOCC4)nn3)C2)cn1 | 632

More lines, now with the values ahead:

Row | RP-LC retention time [s] | Structure (SMILES)
27 | 926 | COc1ccc(-c2nc3cnc(Br)cn3c2Nc2ccc3c(c2)OCO3)cc1
28 | 928 | Cc1ccc(F)cc1S(=O)(=O)NC1CCN(c2ccccc2)C1=O (stereo not drawn)
29 | 894 | CCC(=O)N1c2ccc(S(=O)(=O)CCC(=O)N3CCN(c4ccccc4F)CC3)cc2CC1C (stereo not drawn)
30 | 813 | CC1CCN(CCNc2ncccc2-c2nnc(-c3ccc(Cl)cc3)o2)CC1
31 | 697 | O=S(=O)(Nc1ccccc1F)c1c[nH]c2ncccc12
32 | 834 | CCCc1ccc(S(=O)(=O)N2CCC3(CC2)NCCN=C3NCc2cccc(OC)c2)cc1
33 | 705 | COCCCNC(=O)Cn1c(=O)c(S(=O)(=O)c2ccccc2)cc2ccccc21
34 | 1030 | CCCN1C(=O)c2cc(S(=O)(=O)Nc3ccccc3F)ccc2Oc2cccnc21
35 | 1080 | O=C(CSc1nccc2ccccc12)Nc1ccccc1C(F)(F)F
36 | 1010 | CCn1cc(C(=O)O)c(=O)c2ccc(Cc3ccccc3)nc21
37 | 811 | CCn1c(=O)c(N2CCN(C(=O)NCc3ccco3)CC2)nc2ccccc21
38 | 902 | Cc1ccc(-c2cc(C(=O)NCc3ccc4c(c3)OCO4)ccn2)s1
